Results taken from PubChem BioAssay (NCI).
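Five compound concentrations were applied to cells in 96-well plates for 48 hours; endpoints were derived by simple linear interpolation of the resulting dose-response curve. TGI is the concentration that stops growth completely.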

Tests used:
Experiment in all cases: inhibition of tumour cell growth, NCI panel, 48 h
[1] = system: BT-549 breast
[2] = system: A549 NSCLC
[3] = system: RXF 393 renal
[4] = system: MALME-3M melanoma
[5] = system: HT29 colon
[6] = system: SN12C renal
[7] = system: IGROV1 ovarian
[8] = system: K-562 leukemia
[9] = system: NCI/ADR-RES ovarian
[10] = system: HCT-116 colon
[11] = system: SNB-19 CNS
[12] = system: NCI-H460 lung
[13] = system: UACC-257 melanoma
[14] = system: EKVX NSCLC
[15] = system: SK-MEL-2 melanoma
[16] = system: U251 CNS
[17] = system: CCRF-CEM leukemia
[18] = system: RPMI-8226 leukemia
[19] = system: 786-0 renal
[20] = system: UACC-62 melanoma
[21] = system: OVCAR-4 ovarian
[22] = system: ACHN renal
[23] = system: TK-10 renal
[24] = system: DU-145 prostate
[25] = system: MDA-MB-231 breast
[26] = system: HL-60(TB) leukemia
[27] = system: SK-MEL-5 melanoma
[28] = system: NCI-H522 lung
[29] = system: MDA-MB-435
[30] = system: MOLT-4 leukemia
[31] = system: T-47D breast
[32] = system: COLO 205 colon
[33] = system: LOX IMVI melanoma
[34] = system: MCF7 breast
[35] = system: OVCAR-3 ovarian
[36] = system: NCI-H23 lung
[37] = system: OVCAR-8 ovarian
[38] = system: NCI-H226 lung
[39] = system: PC-3 prostate
[40] = system: MDA-N
[41] = system: SW-620 colon
[42] = system: SF-295 CNS
[43] = system: CAKI-1 renal
[44] = system: M14 melanoma
[45] = system: HOP-62 NSCLC
[46] = system: OVCAR-5 ovarian
[47] = system: HOP-92 NSCLC
[48] = system: UO-31 renal
[49] = system: A498 renal
[50] = system: SK-MEL-28 melanoma
[51] = system: HCT-15 colon
[52] = system: KM12 colon
[53] = system: SK-OV-3 ovarian
[54] = system: HS 578T breast
[55] = system: SF-268 CNS
[56] = system: SF-539 CNS
[57] = system: SNB-75 CNS
[58] = system: SR leukemia
[59] = system: HCC-2998 colon

O=C1NC(=S)NC(=O)C1C(c1ccc(Cl)cc1)C1C(=O)NC(=S)NC1=O
TGI [1]: > 100 µM
TGI [2]: > 100 µM
TGI [3]: > 100 µM
TGI [4]: > 100 µM
TGI [5]: > 100 µM
TGI [6]: > 100 µM
TGI [7]: > 100 µM
TGI [8]: > 100 µM
TGI [9]: > 100 µM
TGI [10]: > 100 µM
TGI [11]: > 100 µM
TGI [12]: > 100 µM
TGI [13]: > 100 µM
TGI [14]: > 100 µM
TGI [15]: > 100 µM
TGI [16]: > 100 µM
TGI [17]: > 100 µM
TGI [18]: > 100 µM
TGI [19]: > 100 µM
TGI [20]: > 100 µM
TGI [21]: > 100 µM
TGI [22]: > 100 µM
TGI [23]: > 100 µM
TGI [24]: > 100 µM
TGI [25]: > 100 µM
TGI [26]: > 100 µM
TGI [27]: > 100 µM
TGI [28]: > 100 µM
TGI [29]: > 100 µM
TGI [30]: > 100 µM
TGI [31]: > 100 µM
TGI [32]: > 100 µM
TGI [33]: > 100 µM
TGI [34]: > 100 µM
TGI [35]: > 100 µM
TGI [36]: > 100 µM
TGI [37]: > 100 µM
TGI [38]: > 100 µM
TGI [39]: > 100 µM
TGI [40]: > 100 µM
TGI [41]: > 100 µM
TGI [42]: > 100 µM
TGI [43]: > 100 µM
TGI [44]: > 100 µM
TGI [45]: > 100 µM
TGI [46]: > 100 µM
TGI [47]: > 100 µM
TGI [48]: > 100 µM
TGI [49]: > 100 µM
TGI [50]: > 100 µM
TGI [51]: > 100 µM
TGI [52]: > 100 µM

O=C1N/N=C\c2ccc(cc2)OCc2cccc(n2)COc2ccc(cc2)/C=N\NC1=O
TGI [1]: > 25 µM
TGI [2]: > 25 µM
TGI [3]: > 25 µM
TGI [4]: > 25 µM
TGI [5]: > 25 µM
TGI [6]: > 25 µM
TGI [7]: > 25 µM
TGI [8]: > 25 µM
TGI [9]: > 25 µM
TGI [53]: > 25 µM
TGI [10]: > 25 µM
TGI [11]: > 25 µM
TGI [12]: > 25 µM
TGI [54]: > 25 µM
TGI [13]: > 25 µM
TGI [14]: > 25 µM
TGI [15]: > 25 µM
TGI [16]: > 25 µM
TGI [17]: > 25 µM
TGI [18]: > 25 µM
TGI [19]: > 25 µM
TGI [55]: > 25 µM
TGI [20]: > 25 µM
TGI [21]: > 25 µM
TGI [22]: > 25 µM
TGI [23]: > 25 µM
TGI [24]: > 25 µM
TGI [25]: > 25 µM
TGI [26]: > 25 µM
TGI [28]: > 25 µM
TGI [29]: > 25 µM
TGI [30]: > 25 µM
TGI [32]: > 25 µM
TGI [34]: > 25 µM
TGI [35]: > 25 µM
TGI [36]: > 25 µM
TGI [37]: > 25 µM
TGI [38]: > 25 µM
TGI [39]: > 25 µM
TGI [40]: > 25 µM
TGI [41]: > 25 µM
TGI [42]: > 25 µM
TGI [56]: > 25 µM
TGI [44]: > 25 µM
TGI [57]: > 25 µM
TGI [45]: > 25 µM
TGI [46]: > 25 µM
TGI [47]: > 25 µM
TGI [48]: > 25 µM
TGI [58]: > 25 µM
TGI [49]: > 25 µM
TGI [50]: > 25 µM
TGI [51]: > 25 µM
TGI [52]: > 25 µM

O=c1ccn(-c2ccccn2)c(=O)n1-c1ccccn1
TGI [2]: > 100 µM
TGI [3]: > 100 µM
TGI [4]: > 100 µM
TGI [5]: > 100 µM
TGI [6]: > 100 µM
TGI [7]: > 100 µM
TGI [8]: > 100 µM
TGI [9]: > 100 µM
TGI [53]: > 100 µM
TGI [10]: > 100 µM
TGI [11]: > 100 µM
TGI [12]: > 100 µM
TGI [54]: > 100 µM
TGI [13]: > 100 µM
TGI [14]: > 100 µM
TGI [15]: > 100 µM
TGI [16]: > 100 µM
TGI [17]: > 100 µM
TGI [18]: > 100 µM
TGI [19]: > 100 µM
TGI [55]: > 100 µM
TGI [21]: > 100 µM
TGI [22]: > 100 µM
TGI [23]: > 100 µM
TGI [24]: > 100 µM
TGI [25]: > 100 µM
TGI [26]: > 100 µM
TGI [27]: > 100 µM
TGI [28]: > 100 µM
TGI [29]: > 100 µM
TGI [30]: > 100 µM
TGI [31]: > 100 µM
TGI [32]: > 100 µM
TGI [33]: > 100 µM
TGI [34]: > 100 µM
TGI [35]: > 100 µM
TGI [36]: > 100 µM
TGI [37]: > 100 µM
TGI [38]: > 100 µM
TGI [39]: > 100 µM
TGI [59]: > 100 µM
TGI [40]: > 100 µM
TGI [41]: > 100 µM
TGI [42]: > 100 µM
TGI [56]: > 100 µM
TGI [43]: > 100 µM
TGI [44]: > 100 µM
TGI [57]: > 100 µM
TGI [45]: > 100 µM
TGI [46]: > 100 µM
TGI [47]: > 100 µM
TGI [48]: > 100 µM
TGI [49]: > 100 µM
TGI [50]: > 100 µM
TGI [51]: > 100 µM
TGI [52]: > 100 µM
